Test results: patent US20060252749A1, “Lacosamide for add-on therapy of psychosis” (SRZ Properties, Inc., priority 2005, published 2006)
Entries after “also recorded” stand apart in the source; their conditions may differ.

Key:
[1] = test system: schizophrenia; settings: cited from earlier work; for Effect on symptoms of schizophrenia: add-on to antipsychotics (Citrome 2003, p. 86); for Effect on psychosis / symptoms of schizophrenia, other anticonvulsants: reports on use in schizophrenia (Citrome 2003, p. 85)
[2] = range 60-400; cited from earlier work
[3] = test system: C57BL/6J mice; experiment: Prepulse inhibition (PPI) of the acoustic startle reflex in mice; format: in vivo; settings: for Mean PPI: 30 min prior to testing
Source text: Chow and water were provided ad libitum for the duration of the study.
Responses were sampled every ms. The inter-trial interval was variable with an average of 15 s (range from 10 to 20 s).

[4] = test system: GABA receptor subtypes; settings: cited from earlier work
[5] = test system: voltage-gated sodium channels; settings: cited from earlier work
[6] = test system: voltage-gated calcium channels; settings: cited from earlier work
[7] = test system: potassium currents; settings: cited from earlier work

**Q.** For `CCCC(CCC)C(=O)O` [Valproate], which “Effect on symptoms of schizophrenia” value [1] is on record?
**A.** preferentially reduce the positive symptoms

**Q.** What about the “Effect on onset of action of the antipsychotic” value ([1]; add-on to olanzapine or risperidone (Casey et al. 2003)) of the same compound?
**A.** enhance the onset of action

**Q.** With `CCCCCCCCCC(=O)OCCN1CCN(CC/C=C2/c3ccccc3Sc3ccc(Cl)cc32)CC1` [Zuclopenthixol decanoate] as the compound, how does the Minimum effective dose [2] read?
**A.** 200 mg/2 weeks

**Q.** Which “Clinical outcome compared with antipsychotic monotherapy” value ([1]; add-on to haloperidol) does the source give for `NC(=O)N1c2ccccc2C=Cc2ccccc21` [carbamazepine] here?
**A.** worse clinical outcome

**Q.** And the “Improvement on the total BPRS (brief psychiatric rating scale)” value ([1]; another study on the use of carbamazepine)?
**A.** failure to detect significant improvement

**Q.** With `CN1CCN(C2=Nc3cc(Cl)ccc3Nc3ccccc32)CC1` [clozapine] as the compound, how does the “Mean PPI” value ([3]; VEH 1/clozapine 3 mg/kg i.p., PPI expressed as a percentage of the basic startle response) read?
**A.** 45 ± 2

**Q.** Which “Effect on psychosis / symptoms of schizophrenia, other anticonvulsants” value [1] does the source give for `NCC1(CC(=O)O)CCCCC1` [gabapentin] here?
**A.** general worsening of psychosis

**Q.** For `COC[C@@H](NC(C)=O)C(=O)NCc1ccccc1` [lacosamide, (R)-2-acetamide-N-benzyl-3-methoxypropionamide], which “Mean PPI” value ([3]; lacosamide 3 mg/kg/VEH 2 i.p.) is on record?
**A.** 29 ± 3

**Q.** What about the “Mean PPI” value ([3]; lacosamide 10 mg/kg/VEH 2 i.p.) of the same compound?
**A.** 34 ± 3

**Q.** And the “Mean PPI” value ([3]; lacosamide 30 mg/kg/VEH 2 i.p.)?
**A.** 27 ± 2

**Q.** And the “Effect on prepulse inhibition compared to vehicle” value ([3]; lacosamide administered alone, any dose tested)?
**A.** did not have any significant effect; also recorded: no significant effect

**Q.** What about the “Direct interaction with known GABA receptor subtypes” value [4] of the same compound?
**A.** does not directly interact

**Q.** And the “Inhibition of voltage-gated sodium channels” value [5]?
**A.** does not inhibit

**Q.** What about the “Inhibition of voltage-gated calcium channels” value [6] of the same compound?
**A.** does not inhibit

**Q.** What about the “Potentiation of potassium currents” value [7] of the same compound?
**A.** does not potentiate

**Q.** Which “Effect on symptoms of schizophrenia” value [1] does the source give for `Nc1nnc(-c2cccc(Cl)c2Cl)c(N)n1` [lamotrigine] here?
**A.** preferentially reduce the positive symptoms

**Q.** And the “Effect in schizophrenia when added to clozapine” value ([1]; added to clozapine, double-blind placebo controlled clinical trial, treatment-resistant schizophrenia)?
**A.** beneficial for the treatment of treatment-resistant schizophrenia; also recorded: improvement of positive, not negative symptoms

**Q.** With `CC1(C)O[C@@H]2[C@@H](CO[C@@]3(COS(N)(=O)=O)OC(C)(C)O[C@@H]23)O1` [topiramate] as the compound, how does the “Effect on psychosis / symptoms of schizophrenia, other anticonvulsants” value [1] read?
**A.** deterioration in both positive and negative symptoms
